Experimental data: patent US3987055A, “Azasteroids compounds and derivatives” (The Board of Regents for the Oklahoma Agricultural & …, priority 1974, dated 1976)
Values joined by “and” are separate entries in the source; they are usually repeats but may differ in a detail not shown here. Equal values may be shown once. Numbered stars: 1 amine (or outer) side, 2 acyl side, 3 side chain; on linkers, the order of the positions; unused ones are H or OH. Bridge positions count the residues as written; N and C are the ends. Square brackets hold non-standard residues; d marks the D form. Peptide text beside a SMILES is read from it. I, II: the chains in the order shown. Actinocin(9to1) = Cc1c2oc3c(C)ccc(C(=O)[*:1])c3nc-2c(C(=O)[*:2])c(N)c1=O; NMeV = CN[C@H](C(=O)O)C(C)C; Sar = CNCC(=O)O

Experiments:
[1] = system: rat testis tubules; assay: lysine-U-14C incorporation into protein by rat testis tubules in vitro; type: cell-based; conditions: for AVERAGE OF TWO FLASK lysine incorporation: average of two flasks; for protein synthesis by teased testis tubules: in words; for lysine incorporation into protein per 100 mg / lysine incorporation into protein per flask: individual flask, 250 mg per flask (so in the source), 1 hour, 33° C
Experimental: (§1) For these investigations the compounds were diluted in a minimal amount of ethanol and further diluted in saline (0.85%) so that the final concentration was 1 mg/ml. The compounds were placed in solution and gassed under N2 and stored at 5° C until used 2 days later for the in vitro incubation studies. Details of the in vitro incubation procedures may be found in Endocrinology 89:791-800 (1971).
The effects of the compounds on the incorporation of lysine -U-^14 C into trichloroacetic (TCA) precipitable protein of rat testes was investigated by incubating about 200 mg of teased testis tubules from mature rats in a 25 ml Erlenmeyer flask containing 3 ml of Krebs Ringer bicarbonate buffer (pH 7.4), L-lysine-U-^14 C (0.5 μCi; 0.1mM), glucose (10 mM) and 0.25 ml of the azasteroid to be tested. The flasks were incubated for 1 hour at 33° C under 95% O2 : 5% CO2 and the TCA precipitable protein was isolated and an aliquot used to measure radioactivity.
CPM = counts per minute. All compounds were tested in a concentration of […]

[2] = effects on testis function: body, testis and seminal vesicle weight; type: in vivo, mice (ICR-Swiss adult male); conditions: average; 0.2 mg per day s.c., 10 days
Experimental: The compounds as shown in Table 7 were dissolved in a minimal amount of ethanol and diluted in sesame oil (1 mg/ml). After dilution, samples were stored at 5° C in the dark and flushed with N2 every 24 hours. The compounds were injected subcutaneously into adult male mice for a period of 10 days. Each mouse injected received a total dose of 2 mg over the 10 day period or 0.2 mg per day. The mice were random bred males of the ICR-Swiss strain and were used in the study when they reached 75±2 days of age. Mice were maintained in air-conditioned and light-controlled (14 hour light/24 hour) animal quarters and provided with lab food and water ad libitum. Animals were necropsied 24 hours after the last injection. Testes and seminal vesicles were excised, trimmed of adhering tissue and weighed fresh at the nearest one-tenth milligram.

[3] = system: rat testis tubules; assay: glucose oxidation (glucose-U-14C) by rat testis tubules in vitro; type: cell-based; conditions: for AVERAGE glucose oxidation: average of flasks; for depression of glucose oxidation in vitro: in words; for GLUCOSE OXIDATION per 100 mg / GLUCOSE OXIDATION per flask: individual flask, 250 mg per flask (so in the source), 2 hours, 33° C; for % DEVIATION FROM CONTROL, glucose oxidation: versus saline, 120 min
Experimental: as §1
The effects of these compounds on glucose oxidation by testis tubules was examined by incubating about 200 mg of teased testis tubules from mature rats in a 25 ml Erlenmeyer flask containing 3 ml of Krebs Ringer bicarbonate buffer (pH 7.4), D-glucose-U-^14 C (0.5 μCi; 10mM) and 0.25 ml of the azasteroid (1 mg/ml) to be tested. The flasks were incubated for 2 hours at 33° C under 95% O2 :5% CO2. The reaction was terminated by adding 0.25 ml of 5 N H2 SO4. Carbon dioxide was trapped in 0.25 ml of hydroxide of Hyamine. The radioactivity present in the Hyamine was determined by liquid scintillation spectrometry. This table includes a detailed summary of the results obtained and an average for each compound. […] Thus, the compounds have potential for antifertility activity in the control of wild rodent populations and possibly stray animals such as dogs and cats.
CPM = counts per minute. Glucose-U-^14 C activity was 0.5 millicurie.
All compounds were tested in a concentration of 250 mg per flask.

[4] = system: sarcoma 180 ascitis cells; assay: antitumor activity, sarcoma 180 ascites in mice, survival; type: in vivo, mice (Swiss albino CD-1 female); conditions: i.p., 5 injections
Experimental: The test system utilized involved Swiss albino CD-1 female mice weighing 25-27 grams which were injected (i.p.) with 1 × 10^6 viable sarcoma 180 ascitis cells. Chemotherapy was initiated 24 hours post-injection with a protocol of five intra-peritonaeal injections at 24 hour intervals.
Animals were weighted at 24 hour intervals and the survival time recorded for each test group.

[5] = system: Cells (1 × 10^5 /ml); assay: potency after pre-incubation of compound in growth medium without cells; type: cell-based; conditions: 4 days
Experimental: To ascertain if the potency of compound 5d was reduced during the incubation in the growth medium in the absence of cells, compound 5d (20 μg/ml) was added to the medium and incubated at 37° C on a shaker for 4 days. Cells (1 × 10^5 /ml) were added to the "incubated" compound-containing medium. The inhibition pattern obtained from the "incubated" medium was identical to that obtained when compound 5d (20 μg/ml) was added simultaneously with the inoculation. […] Since the compounds are not inactivated by serum, their effectiveness for animal use or human tests is enhanced. This fact is stressed in animal studies recited in Example IX below.

[6] = system: acid phosphatase, KB and L-M cells; assay: relative acid phosphatase staining (permeability of lysosomal membrane) of KB and L-M cells; type: cell-based, human (KB) and mouse (L-M); parameters: key to Relative acid phosphatase staining: light: cells showing only a few scattered granules; medium: more dense but distinct isolated granules were still detected; heavy: a more intense staining with fewer discrete granules; conditions: 20 μg/ml
Experimental: KB and L-M cells were grown on coverslips in medium 199 with 10% calf serum for the 24 hour growth prior to staining in the presence or absence of compound 5c (20 μg/ml) or compound 5d (20 μg/ml). The cells were washed in Hanks' salt solution, incubated at 37° C in Gomori's substrate solution for 1, 2, or 3 hours, washed, treated with a 1% solution of ammonium sulfide, washed, mounted and observed microscopically. Light staining was designated as cells showing only a few scattered granules; medium staining was more dense but distinct isolated granules were still detected; and heavy staining a more intense staining with fewer discrete granules. Heavy staining denotes increased phosphatase activity.
The acid phosphatase activity was measured in KB and L-M cells grown in medium in the presence or absence compound 5c or 5d (20 μg/ml) for 2 or 24 hours prior to staining (Table 2). Quantitative evaluation of the relative staining intensity of the lysosomes was compared in the treated and untreated cells. […] Thus, cells grown in the presence of compound 5c accumulate the phosphatase substrate within the lysosomes much more rapidly than the control or compound 5d treated cells indicating the compounds ability to alter membrane permeability and thus regulate the accumulation of essential metabolites. Control of this cellular capacity permits regulation of cell division so important in cancer chemotherapy. Since the permeation of the substrate is the rate-limiting step in the phosphatase determination, compound 5c produces a modification of the lysosomal membrane which increased the permeability of the lysosome to the substrate. The results also emphasize the difference in biological activity of compound 5c and 5d type molecules which chemically are similar except at C-3. Differences in the biological activity have been observed when the compounds were tested using various bacteria.

[7] = system: L-M cells; assay: growth inhibition of mouse L-M cell line; type: cell-based
Experimental: Cells (1 × 10^5 /ml) were added to the "incubated" compound-containing medium.

[8] = system: KB cells; assay: relative plating efficiency of KB cells (colony formation, 7 days); type: cell-based, human
Experimental: The KB cells were plated in plastic tissue culture dishes and grown in a 5% CO2 gas phase incubator for 7 days. The medium was removed, the plates washed with Hanks' salt solution and the cells stained with a 0.5% aqueous crystal violet solution, rinsed and dried. The colonies were counted and the relative plating efficiency calculated using the number of control colonies as 100 percent.

[9] = system: KB cells; assay: growth inhibition of human tumor KB cell line; type: cell-based; conditions: 10 μg/ml or greater, read-out: concentration at which growth was inhibited
Experimental: For example, growth of both the human tumor KB* and the mouse L-M** cell lines was inhibited when the cells were grown in media containing 10 μg/ml or greater

[10] = system: B. subtilis W23; assay: antimicrobial activity in combination with selected antibiotics; type: cell-based; conditions: alone; B. subtilis W23
Experimental: Several antibiotics act at the cell surface. The antimicrobial activity of the hydroxybenzindazole in combination with selected antibiotics was measured.
Both Polymyxin (Pfizer, Inc.) and Circulin (Upjohn Co.) are surface active compounds thought to cause disorganization of the cell membrane leading to a loss of intracellular components. The enhanced antimicrobial activity observed with the combination of hydroxybenzindazole and antibiotics denotes a more pronounced distortion in the cell surface. Thus, much lower concentrations of the compounds can be used in medicinal applications providing an opportunity for toxic compounds to have greater medicinal applicability and use.
Failure of the mixture of hydroxybenzindazole and chloramphenicol to show an enhanced inhibition of growth could be correlated with the internal site of action of chloramphenicol, which is blockage of the binding of the 30s and 50s ribosomal subunits.

| SMILES | AVERAGE OF TWO FLASK lysine incorporation [1] | protein synthesis by teased testis tubules [1] | lysine incorporation into protein per 100 mg [1] | lysine incorporation into protein per flask [1] | Body Weight [2] [g] | Mg Testes Per g Body Wt. [2] [Mg per g] | Seminal Vesicle weight [2] [mg] | Testes Paired weight [2] [mg] | AVERAGE glucose oxidation [3] | depression of glucose oxidation in vitro [3] | GLUCOSE OXIDATION per 100 mg [3] | GLUCOSE OXIDATION per flask [3] | % DEVIATION FROM CONTROL, glucose oxidation [3] | other results |
| --- | --- | --- | --- | --- | --- | --- | --- | --- | --- | --- | --- | --- | --- | --- |
| CC12CCc3cc(O)ccc3C1=NNC2=O (racemic) [Compound 4c] | 1,389 CPM/100 mg tissue | depress protein synthesis | 1,309 CPM/100 mg and 1,470 CPM/100 mg | 2,575 CPM/FLASK and 2,925 CPM/FLASK | 35.7 | 7.28 | 82.1 | 261.0 | 8,705 CPM/100 mg TISSUE | comparable to saline | 8,847 CPM/100 mg and 8,564 CPM/100 mg | 17,350 CPM/FLASK and 17,325 CPM/FLASK | -19.94% |  |
| Cc1c2oc3c(C)ccc(C(=O)N[C@@H]4C(=O)N[C@H](C(C)C)C(=O)N5CCC[C@H]5C(=O)N(C)CC(=O)N(C)[C@@H](C(C)C)C(=O)O[C@@H]4C)c3nc-2c(C(=O)N[C@@H]2C(=O)N[C@H](C(C)C)C(=O)N3CCC[C@H]3C(=O)N(C)CC(=O)N(C)[C@@H](C(C)C)C(=O)O[C@@H]2C)c(N)c1=O [Actinomycin D, reference compound] (I: T[dV]P[Sar][NMeV] / II: T[dV]P[Sar][NMeV]; ester I:1-I:C, II:1-II:C; linker I:N-II:N via Actinocin(9to1)) |  |  |  |  |  |  |  |  |  |  |  |  |  | Survival ratio T/C (survival time of test animal / control animal) ([4]; 4 μg/injection, total 20 μg): 1.9 |
| COc1ccc2c3c(ccc2c1)C1=NCCC1(C)CC3 (stereo not shown) [Compound 5d, 1,10,11,11a-tetrahydro-7-methoxy-11a-methyl-2H-naphth[1,2-g]indole] | 1,565 CPM/100 mg tissue | depress protein synthesis | 1,585 CPM/100 mg and 1,546 CPM/100 mg | 3,225 CPM/FLASK and 3,125 CPM/FLASK | 32.3 | 6.32 | 67.7 | 201.6 | 12,140 CPM/100 mg TISSUE | depressed glucose oxidation in vitro more than compounds 4 c and 11b | 16,081 CPM/100 mg and 8,200 CPM/100 mg | 32,194 CPM/FLASK and 16,539 CPM/FLASK | +17.4% | inhibition pattern from incubated medium versus simultaneous addition ([5]; 20 μg/ml, medium pre-incubated 37° C): identical; detoxification by auto-oxidation or enzymatic (serum) processes in culture medium ([5]; 37° C): does not occur; Relative acid phosphatase staining ([6]; 24 h, 1 hour in substrate): none and did not stain; Relative acid phosphatase staining ([6]; 24 h, 2 hours in substrate): light; Relative acid phosphatase staining ([6]; 24 h, 3 hours in substrate): medium; staining reaction versus control ([6]; 24 h, all three substrate incubation times): identical staining reactions; staining intensity versus untreated cells ([6]; cells treated for 2 hours): indistinguishable from untreated cells; growth rate versus control ([7]; 1 μg/ml): same growth rate as the control; growth inhibition at 20 μg/ml ([7]; 20 μg/ml): depressed the growth rate only slightly over the rate observed with 10 μg/ml; inhibition at 10 µg/mL ([7]; Mus musculus, 96 h, 10 μg/ml, fourth day, read-out: reduction in growth as compared to the control): 30%; minimal effective concentration ([7]; Mus musculus, L-M cells, 10 μg/ml or greater, read-out: concentration at which growth was inhibited): ≥ 10 µg/mL; effect on the relative plating efficiency ([8]; 1 μg/ml): little effect; inhibition of growth compared with control culture ([8]; 10 and 20 μg/ml): only a very slight inhibition of growth; activity at 1 µg/mL ([8]; Homo sapiens, KB, 168 h, 1 μg/ml): 97%; activity at 10 µg/mL ([8]; Homo sapiens, KB, 168 h, 10 μg/ml): 82%; activity at 20 µg/mL ([8]; Homo sapiens, KB, 168 h, 20 μg/ml): 79%; minimal effective concentration [9]: ≥ 10 µg/mL |
| Oc1ccc2c3c(ccc2c1)-c1[nH]ncc1CC3 [Compound 11a, 10,11-Dihydro-3H-naphth[1,2-g]indazol-7-ol] |  |  |  |  |  |  |  |  |  |  |  |  |  | Survival ratio T/C (survival time of test animal / control animal) ([4]; 0.8 μg/injection, total 4 μg): 1.0 |
| COc1ccc2c3c(ccc2c1)-c1[nH]ncc1CC3 [Compound 11b, 10,11-Dihydro-7-methoxy-3H-naphth[1,2-g]indazole] | 1,155 CPM/100 mg tissue | depress protein synthesis | 1,194 CPM/100 mg and 1,116 CPM/100 mg | 2,325 CPM/FLASK and 2,225 CPM/FLASK | 34.0 | 6.67 | 88.7 | 229.0 | 9,550 CPM/100 mg TISSUE | comparable to saline | 11,590 CPM/100 mg and 7,510 CPM/100 mg | 23,529 CPM/FLASK and 15,382 CPM/FLASK |  |  |
| CC1(C)S[C@@H]2[C@H](NC(=O)Cc3ccccc3)C(=O)N2[C@H]1C(=O)O [penicillin, reference compound] |  |  |  |  |  |  |  |  |  |  |  |  |  | inhibition of growth, tested separately [10]: very slight inhibition of growth |
